From US8318769B2, “Substituted sulfonamide compounds” (Gruenethal GmbH, priority 2008, dated 2012)

Biological target: T1, bradykinin 1 receptor (B1R) of the rat (Rattus norvegicus, UniProt P97583)
T1 construct: expressed in transfected cells
T1 sequence (P97583 1-337): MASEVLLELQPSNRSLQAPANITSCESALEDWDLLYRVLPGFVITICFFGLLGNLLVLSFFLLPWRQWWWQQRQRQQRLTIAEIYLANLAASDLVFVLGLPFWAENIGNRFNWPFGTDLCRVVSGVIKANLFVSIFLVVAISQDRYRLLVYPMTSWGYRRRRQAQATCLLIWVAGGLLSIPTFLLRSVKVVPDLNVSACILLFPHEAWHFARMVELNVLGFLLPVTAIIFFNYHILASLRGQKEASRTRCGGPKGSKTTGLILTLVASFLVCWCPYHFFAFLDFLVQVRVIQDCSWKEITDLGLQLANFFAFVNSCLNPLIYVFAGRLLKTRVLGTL
Experiment: FLIPR Ca2+ assay, B1R antagonism, rat
Type: cell-based
Settings: CHO K1 cells with rat B1R gene (rB1R cells), Des-Arg9-bradykinin at EC80, % inhibition compared with the maximum achievable inhibition; for inhibition at 10 µM: CHO-K1, 10 μM test substance, read-out: B1R antagonism, rat [10 μM] % inhibition; for B1R antagonism, rat [10 μM] % inhibition: 10 μM test substance
Procedure: The agonistic or antagonistic action of substances can be quantified on the bradykinin 1 receptor (B1R) of the human and rat species with ectopically expressing cell lines (CHO K1 cells) and with the aid of a Ca^2+-sensitive dyestuff (Fluo-4) in a fluorescent imaging plate reader (FLIPR). The figure in % activation is based on the Ca^2+ signal after addition of Lys-Des-Arg^9-bradykinin (0.5 nM) or Des-Arg^9-bradykinin (100 nM). Antagonists lead to a suppression of the Ca^2+ inflow after addition of the agonist. % inhibition compared with the maximum achievable inhibition is stated.
The agonistic or antagonistic action of substances can be determined on the bradykinin 1 receptor (B1R) of the human and rat species with the following assay. In accordance with this assay, the Ca^2+ inflow through the channel is quantified with the aid of a Ca^2+-sensitive dyestuff (type Fluo-4, Molecular Probes Europe BV, Leiden, Holland) in a fluorescent imaging plate reader (FLIPR, Molecular Devices, Sunnyvale, USA).
Chinese hamster ovary cells (CHO K1 cells) transfected stably with the human B1R gene (hB1R cells) or the B1R gene of the rat (rB1R cells) are used. For functional studies, these cells are plated out on black 96-well plates with a clear base (BD Biosciences, Heidelberg, Germany or Greiner, Frickenhausen, Germany) in a density of 20,000-35,000 cells/well. The cells are left overnight at 37° C. and 5% CO2 in culture medium (hB1R cells: Nutrient Mixture Ham's F12, Gibco Invitrogen GmbH, Karlsruhe, Germany or DMEM, Sigma-Aldrich, Taufkirchen, Germany; rB1R cells: D-MEM/F12, Gibco Invitrogen GmbH, Karlsruhe, Germany) with 10 vol. % FBS (foetal bovine serum, Gibco Invitrogen GmbH, Karlsruhe, Germany or PAN Biotech GmbH, Aidenbach, Germany).
On the following day, the cells are loaded for 60 min at 37° C. with 2.13 μM Fluo-4 (Molecular Probes Europe BV, Leiden, Holland) in HBSS buffer (Hank's buffered saline solution, Gibco Invitrogen GmbH, Karlsruhe, Germany) with 2.5 mM probenecid (Sigma-Aldrich, Taufkirchen, Germany) and 10 mM HEPES (Sigma-Aldrich, Taufkirchen, Germany). The plates are then washed 2× with HBSS buffer, and HBSS buffer which additionally contains 0.1% BSA (bovine serum albumin; Sigma-Aldrich, Taufkirchen, Germany), 5.6 mM glucose and 0.05% gelatine (Merck KGaA, Darmstadt, Germany) is added. After a further incubation of 20 minutes at room temperature, the plates are inserted into the FLIPR for the Ca^2+ measurement.
Alternatively, the plates are washed with buffer A (15 mM HEPES, 80 mM NaCl, 5 mM KCl, 1.2 mM CaCl2, 0.7 mM MgSO4, 2 g/l glucose, 2.5 mM probenecid), buffer A is added and the plates are loaded with 2.5 μM Fluo-4 and 0.025% Pluronic F127 (Sigma-Aldrich, Taufkirchen, Germany). Thereafter, the cells are washed 2× with buffer A and incubated for 30 minutes with buffer A, which additionally contains 0.05% BSA and 0.05% gelatine, at room temperature and thereafter inserted into the FLIPR for the Ca^2+ measurement.
The Ca^2+-dependent fluorescence is measured here before and after addition of substances (λex=488 nm, λem=540 nm). Quantification is by measurement of the highest fluorescence intensity (FC, fluorescence counts) over time.
The FLIPR protocol consists of 2 additions of substance. Test substances (10 μM) are first pipetted on to the cells and the Ca^2+ inflow is compared with the control (hB1R: Lys-Des-Arg^9-bradykinin >=50 nM; rB1R: Des-Arg^9-bradykinin 10 μM). This gives the figure in % activation based on the Ca^2+ signal after addition of Lys-Des-Arg^9-bradykinin (>=50 nM) or Des-Arg^9-bradykinin (10 μM).
After incubation for 10-20 minutes, Lys-Des-Arg^9-bradykinin (hB1R) or Des-Arg^9-bradykinin (rB1R) in the concentration of the EC80 is applied and the inflow of Ca^2+ is likewise determined. Antagonists lead to a suppression of the Ca^2+ inflow. % inhibition compared with the maximum achievable inhibition is calculated. […]

Compound | inhibition at 10 µM [%] | other results
CN(CCCC(=O)N1CCC(OCCN2CCCC2)(c2cccc(F)c2)CC1)S(=O)(=O)c1cccc(C(F)(F)F)c1 [Example 127, N-[4-[4-(3-fluorophenyl)-4-(2-pyrrolidin-1-yl-ethoxy)-piperidin-1-yl]-4-oxo-butyl]-N-methyl-3-(trifluoromethyl)-benzenesulfonic acid amide] | 49 | 
COc1cc(C)c(S(=O)(=O)N2CCCCC2CCCC(=O)N2CCC(OCCN3CCCC3)(c3ccc(C(F)(F)F)cc3)CC2)c(C)c1 (stereo not shown) [Example 79, 4-[1-[(4-methoxy-2,6-dimethyl-phenyl)sulfonyl]-piperidin-2-yl]-1-[4-(2-pyrrolidin-1-yl-ethoxy)-4-[4-(trifluoromethyl)-phenyl]-piperidin-1-yl]-butan-1-one] | 100 | 
COc1cc(C)c(S(=O)(=O)N(CCOCC(=O)N2CCC(OCCN3CCCC3)(c3ccc(C(F)(F)F)cc3)CC2)C2CC2)c(C)c1 [Example 67, N-cyclopropyl-4-methoxy-2,6-dimethyl-N-[2-[2-oxo-2-[4-(2-pyrrolidin-1-yl-ethoxy)-4-[4-(trifluoromethyl)-phenyl]-piperidin-1-yl]-ethoxy]-ethyl]-benzenesulfonic acid amide] | 98 | 
Cc1cccc(Cl)c1S(=O)(=O)N(CCOCC(=O)N1CCC(OCCN2CCCC2)(c2ccc(C(F)(F)F)cc2)CC1)C1CC1 [Example 71, 2-chloro-N-cyclopropyl-6-methyl-N-[2-[2-oxo-2-[4-(2-pyrrolidin-1-yl-ethoxy)-4-[4-(trifluoromethyl)-phenyl]-piperidin-1-yl]-ethoxy]-ethyl]-benzenesulfonic acid amide] | 95 | 
Cc1cc(S(=O)(=O)N2CCCCC2CCC(=O)N2CCC(OCCN3CCCC3)(c3ccc(F)cc3)CC2)c(C)cc1Cl (stereo not shown) [Example 74, 3-[1-[(4-chloro-2,5-dimethyl-phenyl)sulfonyl]-piperidin-2-yl]-1-[4-(4-fluorophenyl)-4-(2-pyrrolidin-1-yl-ethoxy)-piperidin-1-yl]-propan-1-one] | 92 | 
CS(=O)(=O)N(CCOCC(=O)N1CCC(OCCN2CCCC2)(c2cccc(F)c2)CC1)C(c1ccccc1)c1ccccc1 [Example 105, N-benzhydryl-N-[2-[2-[4-(3-fluorophenyl)-4-(2-pyrrolidin-1-yl-ethoxy)-piperidin-1-yl]-2-oxo-ethoxy]-ethyl]-methanesulfonic acid amide] | 99 | 
COc1cc(C)c(S(=O)(=O)N2CCCCC2CCCC(=O)N2CCC(OCCN3CCCC3)(c3ccc(F)cc3)CC2)c(C)c1 (stereo not shown) [Example 78, 1-[4-(4-fluorophenyl)-4-(2-pyrrolidin-1-yl-ethoxy)-piperidin-1-yl]-4-[1-[(4-methoxy-2,6-dimethyl-phenyl)sulfonyl]-piperidin-2-yl]-butan-1-one] | 95 | 
O=C(COCC1CCc2ccccc2N1S(=O)(=O)c1ccc2ccccc2c1)N1CCC(OCCN2CCCC2)(c2cccnc2)CC1 (stereo not shown) [Example 130, 2-[[1-(naphthalen-2-ylsulfonyl)-1,2,3,4-tetrahydro-quinolin-2-yl]-methoxy]-1-[4-pyridin-3-yl-4-(2-pyrrolidin-1-yl-ethoxy)-piperidin-1-yl]-ethanone] |  | B1R antagonism, rat [10 μM] % inhibition (10 µM): 83%
O=C(COCC1COc2ccccc2N1S(=O)(=O)c1ccccc1C(F)(F)F)N1CCC(OCCN2CCCC2)(c2cccc(F)c2)CC1 (stereo not shown) [Example 111, 1-[4-(3-fluorophenyl)-4-(2-pyrrolidin-1-yl-ethoxy)-piperidin-1-yl]-2-[[4-[[2-(trifluoromethyl)-phenyl]sulfonyl]-3,4-dihydro-2H-[1,4]benzoxazin-3-yl]-methoxy]-ethanone] | 101 | 
O=C(CC(NS(=O)(=O)c1ccc2ccccc2c1)c1ccccc1)N1CCC(OCCN2CCCC2)(c2ccc(F)cc2)CC1 (stereo not shown) [Example 76, N-[3-[4-(4-fluorophenyl)-4-(2-pyrrolidin-1-yl-ethoxy)-piperidin-1-yl]-3-oxo-1-phenyl-propyl]-naphthalene-2-sulfonic acid amide] | 90 | 
COc1cc(C)c(S(=O)(=O)N2CCCCC2CCOCC(=O)N2CCC(OCCN3CCCC3)(c3cccc(F)c3)CC2)c(C)c1 (stereo not shown) [Example 126, 1-[4-(3-fluorophenyl)-4-(2-pyrrolidin-1-yl-ethoxy)-piperidin-1-yl]-2-[2-[1-[(4-methoxy-2,6-dimethyl-phenyl)sulfonyl]-piperidin-2-yl]-ethoxy]-ethanone] |  | B1R antagonism, rat [10 μM] % inhibition (10 µM): 98%
O=C(CC(NS(=O)(=O)c1ccc2ccccc2c1)c1ccccc1)N1CCC(OCCN2CCCC2)(c2ccc(C(F)(F)F)cc2)CC1 (stereo not shown) [Example 77, N-[3-oxo-1-phenyl-3-[4-(2-pyrrolidin-1-yl-ethoxy)-4-[4-(trifluoromethyl)-phenyl]-piperidin-1-yl]-propyl]-naphthalene-2-sulfonic acid amide] | 94 | 
1-[4-pyridin-3-yl-4-(2-pyrrolidin-1-yl-ethoxy)-piperidin-1-yl]-2-[[4-[[2-(trifluoromethyl)-phenyl]sulfonyl]-3,4-dihydro-2H-[1,4]benzoxazin-3-yl]-methoxy]-ethanone [Example 110] |  | B1R antagonism, rat [10 μM] % inhibition: 75%
COc1cc(C)c(S(=O)(=O)N(CCOCC(=O)N2CCC(OCCN3CCCC3)(c3ccc(F)cc3)CC2)C2CC2)c(C)c1 [Example 66, N-cyclopropyl-N-[2-[2-[4-(4-fluorophenyl)-4-(2-pyrrolidin-1-yl-ethoxy)-piperidin-1-yl]-2-oxo-ethoxy]-ethyl]-4-methoxy-2,6-dimethyl-benzenesulfonic acid amide] | 97 | 
Cc1cccc(Cl)c1S(=O)(=O)N(CCOCC(=O)N1CCC(OCCN2CCCC2)(c2ccc(F)cc2)CC1)C1CC1 [Example 70, 2-chloro-N-cyclopropyl-N-[2-[2-[4-(4-fluorophenyl)-4-(2-pyrrolidin-1-yl-ethoxy)-piperidin-1-yl]-2-oxo-ethoxy]-ethyl]-6-methyl-benzenesulfonic acid amide] | 98 | 
Cc1cccc(Cl)c1S(=O)(=O)N1CCCCC1COCC(=O)N1CCC(OCCN2CCCC2)(c2ccc(C(F)(F)F)cc2)CC1 (stereo not shown) [Example 69, 2-[[1-[(2-chloro-6-methyl-phenyl)sulfonyl]-piperidin-2-yl]-methoxy]-1-[4-(2-pyrrolidin-1-yl-ethoxy)-4-[4-(trifluoromethyl)-phenyl]-piperidin-1-yl]-ethanone] | 97 | 
